One experiment deals with T1, hDP (Homo sapiens, UniProt Q13258).
T1 construct: expressed in transfected cells; host or cells: HEK (by analogy HEK-293(EBNA))
T1 sequence (Q13258 1-359): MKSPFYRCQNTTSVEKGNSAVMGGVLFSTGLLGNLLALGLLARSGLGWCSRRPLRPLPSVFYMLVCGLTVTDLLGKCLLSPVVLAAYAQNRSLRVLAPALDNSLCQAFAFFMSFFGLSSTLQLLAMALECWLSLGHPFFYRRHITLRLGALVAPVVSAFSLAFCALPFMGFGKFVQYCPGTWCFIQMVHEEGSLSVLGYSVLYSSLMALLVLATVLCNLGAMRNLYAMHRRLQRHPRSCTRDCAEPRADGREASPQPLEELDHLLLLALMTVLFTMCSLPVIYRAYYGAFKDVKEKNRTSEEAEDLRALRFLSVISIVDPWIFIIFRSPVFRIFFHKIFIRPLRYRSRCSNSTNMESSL
Description: Calcium signal (FLIPR) assay, hDP (HEK). Type of experiment: cell-based. The note with it: for Kb: antagonism of standard agonist BW245C, HEK cells coexpress chimeric Gqs5. As for the experimental part: (§1) Cells were then washed twice with HBSS-HEPES buffer (Hanks Balanced Salt Solution without bicarbonate and phenol red, 20 mM HEPES, pH 7.4) using a Denley Cellwash plate washer (Labsystems; Franklin, Mass.). After 45-60 min of dye-loading in the dark using the calcium-sensitive dye Fluo-4 AM, at a final concentration of 2 μM, plates were washed four times with HBSS-HEPES buffer to remove excess dye and leaving 100 μl buffer in each well. Plates were then placed into a FLIPR™ instrument and were allowed to equilibrate at 37° C. Drug solution was added in a 50 μl volume to each well to give the desired final concentration. Cells were excited with an Argon laser at 488 nm, and emission was measured through a 510-570 nm bandwidth emission filter (FLIPR™, Molecular Devices, Sunnyvale, Calif.). The peak increase in fluorescence intensity was recorded for each well. […] A similar analysis was carried out for the other prostaglandin receptors, and for compound 2.

The next experiment has as its target T2, hEP1 (Homo sapiens, UniProt P34995).
T2 construct: expressed in transfected cells; host or cells: HEK (by analogy HEK-293(EBNA))
T2 sequence (P34995 1-402): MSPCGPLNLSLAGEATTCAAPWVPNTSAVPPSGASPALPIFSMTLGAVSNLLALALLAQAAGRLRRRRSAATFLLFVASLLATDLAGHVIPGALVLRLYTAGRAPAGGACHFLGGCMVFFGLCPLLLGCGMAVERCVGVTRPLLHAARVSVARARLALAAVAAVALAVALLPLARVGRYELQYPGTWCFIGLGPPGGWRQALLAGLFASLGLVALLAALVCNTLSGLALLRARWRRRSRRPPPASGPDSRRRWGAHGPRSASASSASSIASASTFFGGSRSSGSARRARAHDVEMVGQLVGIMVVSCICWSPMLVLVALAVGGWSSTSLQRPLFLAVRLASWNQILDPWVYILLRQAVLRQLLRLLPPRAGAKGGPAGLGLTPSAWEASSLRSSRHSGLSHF
Description: Calcium signal (FLIPR) assay, hEP1 (HEK). In kind it is cell-based. The protocol:
as §1

The target in the next experiment is T3, hFP (Homo sapiens, UniProt P43088).
T3 construct: expressed in transfected cells; host or cells: HEK (by analogy HEK-293(EBNA))
T3 sequence (P43088 whole entry): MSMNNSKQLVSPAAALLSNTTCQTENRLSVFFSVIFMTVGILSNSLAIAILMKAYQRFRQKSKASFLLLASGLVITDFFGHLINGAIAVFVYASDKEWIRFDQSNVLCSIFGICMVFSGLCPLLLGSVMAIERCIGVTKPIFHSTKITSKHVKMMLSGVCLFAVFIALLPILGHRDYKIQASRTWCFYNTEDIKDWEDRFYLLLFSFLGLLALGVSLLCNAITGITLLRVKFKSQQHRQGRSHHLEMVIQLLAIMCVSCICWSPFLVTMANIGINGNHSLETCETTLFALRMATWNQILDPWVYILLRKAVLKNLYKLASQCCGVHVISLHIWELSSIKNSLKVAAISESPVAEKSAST
Description: Calcium signal (FLIPR) assay, hFP (HEK). In kind it is cell-based. The protocol:
(§2) Cells were then washed twice with HBSS-HEPES buffer (Hanks Balanced Salt Solution without bicarbonate and phenol red, 20 mM HEPES, pH 7.4) using a Denley Cellwash plate washer (Labsystems; Franklin, Mass.). After 45-60 min of dye-loading in the dark using the calcium-sensitive dye Fluo-4 AM, at a final concentration of 2 μM, plates were washed four times with HBSS-HEPES buffer to remove excess dye and leaving 100 μl buffer in each well. Plates were then placed into a FLIPR™ instrument and were allowed to equilibrate at 37° C. […] The peak increase in fluorescence intensity was recorded for each well.

The next experiment concerns the target T4, hIP (Homo sapiens, UniProt P43119).
T4 construct: expressed in transfected cells; host or cells: HEK (by analogy HEK-293(EBNA))
Description: Calcium signal (FLIPR) assay, hIP (HEK). Conditions: antagonism of standard agonist Carbacyclin; HEK cells. Type of experiment: cell-based. As for the experimental part:
as §2

The target in another experiment is T5, hEP2 (Homo sapiens, UniProt P43116).
T5 construct: expressed in transfected cells; host or cells: HEK (by analogy HEK-293(EBNA))
T5 sequence (P43116 whole entry): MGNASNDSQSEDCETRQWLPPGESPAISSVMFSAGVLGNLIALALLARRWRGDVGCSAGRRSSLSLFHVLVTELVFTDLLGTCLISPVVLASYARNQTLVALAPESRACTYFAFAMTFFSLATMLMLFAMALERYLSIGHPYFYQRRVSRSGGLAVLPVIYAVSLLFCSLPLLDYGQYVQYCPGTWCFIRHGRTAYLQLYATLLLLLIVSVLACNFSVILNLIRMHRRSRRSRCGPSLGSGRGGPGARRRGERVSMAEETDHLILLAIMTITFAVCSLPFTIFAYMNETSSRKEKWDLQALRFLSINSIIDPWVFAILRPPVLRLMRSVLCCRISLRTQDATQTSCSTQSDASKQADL
The experiment can be described thus: Calcium signal (FLIPR) assay, hEP2 (HEK). Type of experiment: cell-based. As for the experimental part: as §2

Another experiment has as its target T6, human EP4 receptor (Homo sapiens, UniProt P35408).
T6 construct: expressed in transfected cells; host or cells: HEK-293(EBNA)
The experiment can be described thus: Effect on Prostaglandin E2 induced calcium signal (FLIPR), hEP4 (HEK). Type of experiment: cell-based. The protocol:
as §2

The next experiment concerns the target T7, hEP3A (Homo sapiens, UniProt P43115).
T7 construct: expressed in transfected cells; host or cells: HEK (by analogy HEK-293(EBNA))
T7 sequence (P43115 1-390): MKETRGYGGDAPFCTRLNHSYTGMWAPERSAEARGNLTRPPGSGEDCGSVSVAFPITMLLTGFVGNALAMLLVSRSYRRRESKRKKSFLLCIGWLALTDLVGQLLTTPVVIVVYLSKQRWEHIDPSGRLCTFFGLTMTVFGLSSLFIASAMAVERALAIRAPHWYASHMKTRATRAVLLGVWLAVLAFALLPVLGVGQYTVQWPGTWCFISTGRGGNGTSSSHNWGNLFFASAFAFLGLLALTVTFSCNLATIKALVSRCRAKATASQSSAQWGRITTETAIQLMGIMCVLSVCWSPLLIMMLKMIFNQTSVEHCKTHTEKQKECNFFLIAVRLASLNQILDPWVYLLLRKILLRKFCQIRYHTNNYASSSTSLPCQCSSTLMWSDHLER
The experiment can be described thus: Calcium signal (FLIPR) assay, hEP3A (HEK). In kind it is cell-based. The protocol:
as §2

Experiment [1] can be described thus: Capsule or suppository given daily to patient suffering from cancer (Example 27). In kind it is in vivo, human. The protocol: A capsule or suppository comprising compound 1 is administered daily to a patient suffering from cancer.
A further experiment deals with T8, hTP (Homo sapiens, UniProt P21731).
T8 construct: expressed in transfected cells; host or cells: HEK (by analogy HEK-293(EBNA))
T8 sequence (P21731 1-343): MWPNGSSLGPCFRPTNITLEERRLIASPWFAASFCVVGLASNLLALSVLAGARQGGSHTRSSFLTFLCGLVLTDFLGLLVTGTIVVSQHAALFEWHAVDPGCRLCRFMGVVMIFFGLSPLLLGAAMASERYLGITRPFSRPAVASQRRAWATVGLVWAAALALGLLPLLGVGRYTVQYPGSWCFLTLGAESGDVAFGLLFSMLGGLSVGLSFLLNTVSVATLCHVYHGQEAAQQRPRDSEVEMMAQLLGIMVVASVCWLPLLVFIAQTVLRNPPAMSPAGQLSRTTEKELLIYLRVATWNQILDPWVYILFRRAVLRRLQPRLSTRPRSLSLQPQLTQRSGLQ
Description: Calcium signal (FLIPR) assay, hTP (HEK). Type of experiment: cell-based. The note with it: for Kb: antagonism of standard agonist U-46619, HEK cells. As for the experimental part:
as §1

Experiment [2] in a line: Capsule given daily to patient suffering from osteoporosis (Example 25). Type of experiment: in vivo, human. As for the experimental part:
A capsule comprising compound 2 is administered daily to a patient suffering from osteoporosis.

Experiment [3] in a line: Tablet given to person suffering from migraine headache (Example 26). Type of experiment: in vivo, human. Conditions: person suffering from a migraine headache. The protocol: A tablet comprising compound 2 is administered to a person suffering from a migraine headache.

pEC50: −log10 of the molar value.

The text below walks through data of US7612082B2, “Prostaglandin EP4 antagonists” (Allergan, Inc., priority 2004, dated 2009).

T4 sequence (P43119 whole entry): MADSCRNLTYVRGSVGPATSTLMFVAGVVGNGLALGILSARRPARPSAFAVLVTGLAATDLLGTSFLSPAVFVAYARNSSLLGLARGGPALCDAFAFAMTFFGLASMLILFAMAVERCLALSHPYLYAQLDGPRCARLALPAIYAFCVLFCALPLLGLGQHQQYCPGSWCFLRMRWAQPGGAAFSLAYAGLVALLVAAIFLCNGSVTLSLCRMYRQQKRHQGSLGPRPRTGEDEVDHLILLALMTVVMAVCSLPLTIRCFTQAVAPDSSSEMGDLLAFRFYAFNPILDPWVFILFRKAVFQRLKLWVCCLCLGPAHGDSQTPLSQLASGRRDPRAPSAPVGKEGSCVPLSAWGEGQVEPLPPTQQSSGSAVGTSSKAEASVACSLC
T6 sequence (P35408 whole entry): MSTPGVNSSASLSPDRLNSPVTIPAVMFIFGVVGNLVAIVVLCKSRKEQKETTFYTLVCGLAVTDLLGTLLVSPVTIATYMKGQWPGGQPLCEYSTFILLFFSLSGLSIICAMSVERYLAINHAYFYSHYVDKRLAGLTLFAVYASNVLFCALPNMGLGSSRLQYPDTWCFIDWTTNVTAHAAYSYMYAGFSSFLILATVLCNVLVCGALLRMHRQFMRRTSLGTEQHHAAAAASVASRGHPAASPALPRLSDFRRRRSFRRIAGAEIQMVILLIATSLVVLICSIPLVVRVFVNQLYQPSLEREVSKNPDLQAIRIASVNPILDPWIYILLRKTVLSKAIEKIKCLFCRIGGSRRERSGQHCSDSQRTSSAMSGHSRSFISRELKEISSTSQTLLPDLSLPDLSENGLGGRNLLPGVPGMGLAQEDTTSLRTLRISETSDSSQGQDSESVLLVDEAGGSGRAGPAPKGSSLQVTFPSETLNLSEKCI

Consider `O=C(O)CCCCCCC1C(=O)NC(=O)N1CCC(O)C1CCCCC1` (stereo not shown) [BW245C, reference compound], for which the pEC50 at hDP (agonist potency, calcium signal, cells coexpress chimeric Gqs5, read-out: Standard agonist hDP (HEK)) is 8.22.
Take `CN(CC(=O)Nc1c2c(nc3c1CCC3)CCCC2)Cc1ccccc1` [Compound 1]: the Kb was above 10 µM at hEP1; above 10 µM on hFP; above 10 µM at hIP; above 10 µM at hEP2; 0.101 µM at human EP4 receptor; above 10 µM at hEP3A. Moreover, the Kb on hDP and at hTP was above 10 µM each time. The “Patient's condition” value in experiment [1] is listed as “Improvement in the patient's condition occurs”.
Consider `CN(CC(=O)Nc1c2c(nc3ccccc13)CCC2)Cc1ccccc1` [Compound 2], for which the Kb was above 10 µM at hEP1; above 10 µM on hFP; above 10 µM at hIP; above 10 µM at hEP2; 0.172 µM at human EP4 receptor; above 10 µM on hEP3A. The Kb on hDP and at hTP was above 10 µM throughout. Also, the Bone density entry in experiment [2] was “Increase in bone density or reduction in bone density loss occurs”. Further, in experiment [3], the Pain entry is recorded as “Significantly less pain is experienced by the patient”.
`CCCCC[C@H](O)/C=C/[C@@H]1[C@@H](C/C=C\CCCC(=O)O)[C@H]2CO[C@@H]1C2` [Compound U-46619, U-46619, reference compound]: the pEC50 at hTP (agonist potency, calcium signal, read-out: Standard agonist hTP (HEK)) was 9.52.
For the compound `CCCCC[C@H](O)/C=C/[C@H]1[C@H](O)CC(=O)[C@@H]1C/C=C\CCCC(=O)O` [PGE2, Prostaglandin E2, reference compound], the pEC50 on hEP1 (agonist potency, calcium signal, read-out: Standard agonist hEP1 (HEK)) is 9.52.
